# Measurements taken from US20190225651A1, “COMPOUNDS FOR INDUCING TISSUE FORMATION AND USES THEREOF” (HISTIDE AG, priority 2015, published 2019).
# Ends that are not written are not given here.
# Experiments:
# Type in all cases: cell-based
# [1] = system: Human umbilical-vein endothelial cells; assay: Endothelialization, CD31 adherens junctions; conditions: 36 hours of culture
# Description: Human umbilical-vein endothelial cells were cultured with and without GFR-binding compounds as defined herein (SEQ ID NO: 26). An increase in the area of the adherent junctions (CD31) was observed after 36 hours of culture with GFR-binding compounds as defined herein (FIG. 10).
# [2] = system: Human umbilical-vein endothelial cells; assay: Angiogenesis, tube-like structure formation; conditions: 18 hours of culture
# Description: Human umbilical-vein endothelial cells were cultured with and without GFR-binding compounds as defined herein (SEQ ID NO: 27).
# Human epithelial cells = assay: Scratch test, collective cell migration; conditions: 18 hours of culture
# Description: Human epithelial cells were cultured with or without GFR-binding compounds as defined herein (SEQ ID NO: 28). A usual scratch test was applied (Nat Protoc 2: 329-333) on a monolayer of these epithelial cells in culture (FIG. 12a). An increase in the cell migration velocity for cells cultured with peptides was observed after 18 hours of culture. The cells migrated collectively and the communication between cells was maintained (FIG. 12b). In fact, the injury has been closed rapidly for the cells cultured with GFR-binding compounds as defined herein.
substance,measurement,setting,value
"SEQ ID NO: 26: cyclic GFR-binding compound inducing endothelialization; sequence not printed (RSVKVAKVRIKPHQGQHGGGGGG; also: cyclic, ring type and places not given here)",area of the adherent junctions (CD31),[1],increase
"SEQ ID NO: 27: vascular peptide, cyclic GFR-binding compound inducing angiogenesis; sequence not printed (SNITMQIMRIKPHQGGGGGG; also: cyclic, ring type and places not given here)",formation of tube-like structures,[2],formation of tube-like structures was observed
"SEQ ID NO: 28: cyclic GFR-binding compound for wound healing; sequence not printed (EYVRKRPVQVRKIEYVRKGGGGGG; also: cyclic, ring type and places not given here)",cell migration velocity,Human epithelial cells,increase
